In ChEMBL document CHEMBL1129417, “Glucose transport-enhancing and hypoglycemic activity of 2-methyl-2-phenoxy-3-phenylpropanoic acids” (1996):

What was measured:
Assay type in all cases: functional
[1] = system: 3T3-L1; assay: Acute effects in vitro by measuring 2-deoxyglucose (2DG) uptake in vehicle treated 3T3-L1 adipocytes at 30 uM dose.
[2] = system: 3T3-L1; assay: In vitro measurements of 2-Deoxyglucose (2DG) uptake in vehicle treated 3T3-L1 adipocytes at 60 uM dose.
[3] = system: 3T3-L1; assay: compound was evaluated for their acute effects in vitro by measuring 2-Deoxyglucose (2DG) uptake in vehicle treated 3T3-L1 adipocytes at concentration of 10 micro M
[4] = system: 3T3-L1; assay: compound was evaluated for their acute effects in vitro by measuring 2-Deoxyglucose (2DG) uptake in vehicle treated 3T3-L1 adipocytes at concentration of 3 micro M
[5] = system: 3T3-L1; assay: compound was evaluated for their acute effects in vitro by measuring 2-Deoxyglucose (2DG) uptake in vehicle treated 3T3-L1 adipocytes at concentration of 30 micro M
[6] = system: Mus musculus; assay: compound was tested in vivo for hypoglycemic activity expressed as Glucose lowering relative to positive control in 6-8 week old C57BL/6J ob/ob mouse at 0.5 mg/kg
[7] = system: Mus musculus; assay: In vivo hypoglycemic activity expressed as glucose lowering relative to positive control in 6-8 week old C57BL/6J ob/ob mouse at 10 mg/kg
[8] = system: Mus musculus; assay: In vivo hypoglycemic activity expressed as glucose lowering relative to positive control in 6-8 week old C57BL/6J ob/ob mouse at 1 mg/kg.
[9] = system: Mus musculus; assay: In vivo hypoglycemic activity expressed as glucose lowering relative to positive control in 6-8 week old C57BL/6J ob/ob mouse at 5 mg/kg.
[10] = species: Rattus norvegicus; assay: Inhibition of gluconeogenesis in rat; conditions: Rattus norvegicus; read-out: ED50
[11] = system: Mus musculus; assay: compound was tested in vivo for hypoglycemic activity in 6-8 week old C57BL/6J ob/ob mouse at 10 mg/kg
[12] = species: Rattus norvegicus; assay: Compound was tested for inhibition of gluconeogenesis; conditions: Rattus norvegicus; read-out: ED50
[13] = system: 3T3-L1; assay: In vitro measurements 2-Deoxyglucose (2DG) uptake in vehicle treated 3T3-L1 adipocytes at 100 uM dose.
[14] = system: Mus musculus; assay: compound was tested in vivo for hypoglycemic activity expressed as Glucose lowering relative to positive control in 6-8 week old C57BL/6J ob/ob mouse at 50 mg/kg
[15] = system: 3T3-L1; assay: Acute effects in vitro by measuring 2-deoxyglucose (2DG) uptake in vehicle treated 3T3-L1 adipocytes at 10 uM dose.
[16] = system: 3T3-L1; assay: compound was evaluated for their acute effects in vitro by measuring 2-Deoxyglucose (2DG) uptake in vehicle treated 3T3-L1 adipocytes at 1 uM dose.
[17] = system: 3T3-L1; assay: compound was evaluated for their acute effects in vitro by measuring 2-Deoxyglucose (2DG) uptake in vehicle treated 3T3-L1 adipocytes at 3 uM dose.
[18] = system: 3T3-L1; assay: In vitro by measurements of 2-Deoxyglucose (2DG) uptake in vehicle treated 3T3-L1 adipocytes at 3 uM dose.
[19] = system: 3T3-L1; assay: compound was evaluated for their acute effects in vitro by measuring 2-Deoxyglucose (2DG) uptake in vehicle treated 3T3-L1 adipocytes at 10 uM dose.
[20] = system: 3T3-L1; assay: compound was evaluated for their acute effects in vitro by measuring 2-Deoxyglucose (2DG) uptake in vehicle treated 3T3-L1 adipocytes at 30 uM dose.
[21] = system: L6; assay: compound was evaluated for their acute effects in vitro by measuring 2-Deoxyglucose (2DG) uptake in vehicle treated L6 […] at 60 uM dose.
[22] = system: 3T3-L1; assay: compound was evaluated for their acute effects in vitro by measuring 2-Deoxyglucose (2DG) uptake in vehicle treated 3T3-L1 adipocytes at 100 uM dose.
[23] = system: Mus musculus; assay: compound was tested in vivo for hypoglycemic activity in 6-8 week old C57BL/6J ob/ob mouse at 50 mg/kg

SMILES | Basal uptake [1] [%] | Hypoglycemic activity [7] [%] | Hypoglycemic activity [9] [%] | ED50 [10] [mg/kg] | Basal uptake [15] [%] | Basal uptake [16] [%] | other results
CCCc1ccc(CC(C)(Oc2ccc(C(C)C)cc2)C(=O)[O-])cc1.[Na+] (stereo unspecified) | 97 | 113 | 134 | 0.5 | – | – | Basal uptake [2]: 282%; Basal uptake [3]: 100%; Basal uptake [4]: 103%; Basal uptake [5]: 233%; Hypoglycemic activity [6]: 69%; Hypoglycemic activity [8]: 70%
CCc1cccc(CC(C)(Oc2ccc(C(C)C)cc2)C(=O)[N-]S(=O)(=O)C(F)(F)F)c1.[Na+] (stereo unspecified) | – | – | – | – | – | – | Hypoglycemic activity [11]: 43%; ED50 [12]: > 10 mg/kg
COc1ccc(CC(Oc2ccc(C(C)C)cc2)C(=O)O)cc1 (stereo unspecified) | – | – | – | > 50 | – | – | Basal uptake [13]: 127%; Hypoglycemic activity [14]: <0%
CC(C)c1ccc(OC(C)(Cc2ccccc2)C(=O)[O-])cc1.[Na+] (stereo unspecified) | – | 3 | – | > 10 | 126 | 100 | Basal uptake [17]: 162%
CC(C)c1ccc(OC(Cc2ccc3ccccc3c2)C(=O)O)cc1 (stereo unspecified) | – | – | – | 50 | – | – | Basal uptake [13]: 143%; Hypoglycemic activity [14]: 45%
CC(C)c1ccc(OC(C)(Cc2ccccc2-c2ccccc2)C(=O)[O-])cc1.[Na+] (stereo unspecified) | 167 | 54 | – | 10 | 228 | 97 | Basal uptake [18]: 148%
CC(C)c1ccc(OC(C)(C[N-]SC(F)(F)F)Cc2ccc(Cl)cc2)cc1.[Na+] (stereo unspecified) | – | – | – | – | – | – | Basal uptake [19]: 132%; Basal uptake [20]: 159%; Basal uptake [17]: 127%; Hypoglycemic activity [11]: <0%; ED50 [12]: > 10 mg/kg
CC(C)c1ccc(OC(C(=O)O)c2ccc(Cl)cc2)cc1 (stereo unspecified) | – | – | – | > 50 | – | – | Basal uptake [13]: 248%; Hypoglycemic activity [14]: <0%
CC(C)c1ccc(CC(C)(Cc2ccc(Cl)cc2)C(=O)O)cc1 (stereo unspecified) | – | – | – | – | – | – | Hypoglycemic activity [11]: 20%; ED50 [12]: > 10 mg/kg
CC(Cc1ccc(Cl)cc1)(Oc1ccc(C2CCSc3ccccc32)cc1)C(=O)[O-].[Na+] (stereo unspecified) | 157 | 38 | – | 10 | 118 | 98 | Basal uptake [18]: 130%
CC(C)c1ccc(OC(C)(Cc2ccc(Cl)cc2)C(=O)NS(=O)(=O)C(F)(F)F)cc1 (stereo unspecified) | 273 | – | – | 5 | 232 | 108 | Basal uptake [18]: 130%; Basal uptake [2]: 79%
CC(C)c1ccc(OC(C)(Cc2ccc(C(F)(F)F)cc2)C(=O)O)cc1 (stereo unspecified) | – | – | 65 | < 5 | – | – | Basal uptake [21]: 103%
CCCc1cccc(CC(C)(Oc2ccc(C(C)C)cc2)C(=O)[O-])c1.[Na+] (stereo unspecified) | 229 | 123 | 82 | 1 | 128 | 123 | Basal uptake [18]: 136%; Hypoglycemic activity [8]: 47%
CCc1ccc(CC(C)(Oc2ccc(C(=O)c3ccccc3)cc2)C(=O)O)cc1 (stereo unspecified) | – | 107 | 108 | 0.5 | – | – | Hypoglycemic activity [6]: 60%; Hypoglycemic activity [8]: 65%
CC(Cc1ccc2c(c1)CCC2)(Oc1ccc(Cc2ccccc2)cc1)C(=O)[O-].[Na+] (stereo unspecified) | – | 120 | 102 | 0.5 | – | – | Hypoglycemic activity [6]: 50%; Hypoglycemic activity [8]: 78%
CC(C)c1ccc(OC(C)(Cc2cccc(-c3ccccc3)c2)C(=O)[O-])cc1.[Na+] (stereo unspecified) | – | 83 | 110 | 0.5 | 76 | – | Basal uptake [18]: 87%; Basal uptake [3]: 118%; Basal uptake [4]: 109%; Basal uptake [5]: 193%; Basal uptake [20]: 118%; Hypoglycemic activity [6]: 46%; Hypoglycemic activity [8]: 78%
CC(C)c1ccc(OC(C)(C(=O)NS(=O)(=O)C(F)(F)F)C(C)c2ccc(Cl)cc2)cc1 (stereo unspecified) | 113 | 7 | – | > 10 | 248 | 94 | –
C1CCC(NC2CCCCC2)CC1.CC(C)c1ccc(OC(Cc2ccc(Cl)c(Cl)c2)C(=O)O)cc1 (stereo unspecified) | – | – | – | – | – | – | Basal uptake [22]: 225%; Hypoglycemic activity [23]: 65%; ED50 [12]: < 50 mg/kg
